From patent US20230257376A1, “ROCK INHIBITOR, AND PREPARATION METHOD THEREFOR AND USE THEREOF” (WUHAN LL SCIENCE AND TECHNOLOGY DEVELOPMENT CO., LTD., priority 2020, published 2023)

Experiments:
ROCK2 kinase = target: T1, ROCK2 kinase (Homo sapiens, UniProt O75116); test: In vitro evaluation of ROCK2 kinase activity (HTRF KinEASE-STK time-resolved fluorometric assay); format: biochemical; conditions: ROCK2 kinase 0.4 ng/μL, ATP 6.739 μM
T1 construct: purchased Invitrogen PV3759
Description: ROCK2 activity screening. ROCK2 activity was detected using a 96-well (Cisbio) time-resolved fluorometric assay. The assay for ROCK2 was performed in the following assay buffer: 5 mM MgCl2 (Sigma), 1 mM DTT (Sigma) and 1× kinase buffer. The kinase buffer was used for dilution. 7.5 μL of ROCK2 kinase (Invitrogen, PV3759) was added to a 96-well microplate to reach a final concentration of 0.4 ng/μL, and then 0.25 μL of test compound (DMSO content: 1% (volume fraction)) was added. The mixture was incubated at room temperature for 0.5 h. To start the reaction, the kinase buffer was used to mix ATP (Aladdin) and the substrate STK-substrate 2-biotin. 7.5 μL of the mixed solution was added to the microplate to reach final concentrations of 6.739 μM and 1 μM. The resulting mixture was incubated at room temperature for 2 h. 5 mL of detection buffer was mixed with STK antibody-Cryptate, and then an appropriate volume of the mixture was mixed with an equal volume of streptavidin-XL665. 10 μL of the resulting mixture was added to the microplate to stop the reaction. After further incubation for about 1 h, the microplate was read on a Molecular Devices SpectraMax i3x multifunctional microplate reader. The kinase buffer, the STK-substrate 2-biotin, the detection buffer, the STK antibody-Cryptate, and the streptavidin-XL665 were all from HTRF KinEASE-STK kit (Cisbio, 1000 tests, 61GSTXLA).

ROCK1 kinase = target: T2, ROCK1 kinase (Homo sapiens, UniProt Q13464); test: In vitro evaluation of ROCK1 kinase selectivity (HTRF KinEASE-STK time-resolved fluorometric assay); format: biochemical; conditions: ROCK1 kinase 0.4 ng/μL, ATP 3.53 μM
T2 construct: purchased Invitrogen
Description: ROCK1 activity was detected using a 96-well (Cisbio) time-resolved fluorometric assay. The assay for ROCK1 was performed in the following assay buffer: 5 mM MgCl2 (Sigma), 1 mM DTT (Sigma) and 1× kinase buffer. The kinase buffer was used for dilution. 7.5 μL of ROCK1 kinase (Invitrogen) was added to a 96-well microplate to reach a final concentration of 0.4 ng/μL, and then 0.25 μL of test compound (DMSO content: 1%) was added. The mixture was incubated at room temperature for 0.5 h. To start the reaction, the kinase buffer was also used to mix ATP (Aladdin) and the substrate STK-substrate 2-biotin. 7.5 μL of the mixed solution was added to the microplate to reach final concentrations of 3.53 μM and 1 μM. The resulting mixture was incubated at room temperature for 2 h. 5 mL of detection buffer was mixed with STK antibody-Cryptate, and then an appropriate volume of the mixture was mixed with an equal volume of streptavidin-XL665. 10 μL of the resulting mixture was added to stop the reaction. After further incubation for about 1 h, the microplate was read on a Molecular Devices SpectraMax i3x multifunctional microplate reader. The kinase buffer, the STK-substrate 2-biotin, the detection buffer, the STK antibody-Cryptate, and the streptavidin-XL665 were all from HTRF KinEASE-STK kit (Cisbio, 1000 tests, 61GSTXLA).

[1] = In vitro cytotoxicity assay in HepG2 cells using the CCK-8 method; format: cell-based; conditions: human
Description: In vitro cytotoxicity assay for the compounds disclosed herein was performed in HepG2 cells using the CCK-8 method. HepG2 cells (Beina Bio) in the logarithmic growth phase were collected, the concentration of cell suspension was adjusted, and then the cells were plated on a 96-well cell culture plate at 50,000 cells/well. The cells were then incubated overnight in a cell incubator (5%, 37° C.), and after 80-90% cell confluence was achieved, test compound at each concentration gradient or vehicle (DMSO) was added after medium change. The resulting mixture was incubated in the cell incubator (5%, 37° C.) for 48 h. After the treatment, the medium in the plate was discarded. The plate was washed twice with PBS, added with CCK-8 working solution (Beyotime) at 100 μL per well, and then incubated at 37° C. for 1.5 h in the dark. Absorbance at OD450 nm mil was measured for each well on a microplate reader, and CC50 value of each compound was analyzed and calculated.

[2] = In vitro metabolic stability, human liver microsome incubation; format: in vitro ADME; conditions: liver microsomes, 1 mg/mL protein, 37° C., read-out: T1/2 in human liver microsome
Description: (§1) The in vitro metabolic stability of the compounds disclosed herein was determined through incubation of liver microsomes of various species. A proper amount of test compound was added into a liver microsome reaction system (1 mg/mL liver microsome protein, 25 U/mL glucose-6 phosphate dehydrogenase, 1 mM NADP, 6 mM D-glucose 6-phosphate and 5 mM MgCl2), and then the mixture was incubated in a water bath kettle at 37° C. to start reaction. At each time point, 100 μL of the reaction liquid was added into a centrifuge tube containing 400 μL of internal standard working solution (containing a 200 ng/mL solution of dexamethasone, diclofenac, tolbutamide and labetalol in acetonitrile) precooled at 0° C. so as to stop the reaction, and the mixture was then centrifuged at 10,000 g for 10 min at 4° C. The supernatant was collected for LC-MS assay so as to obtain the values of in vitro metabolic half-life of the test compounds in liver microsomes of various species.

[3] = In vitro metabolic stability, rat liver microsome incubation; format: in vitro ADME; conditions: liver microsomes, 1 mg/mL protein, 37° C., read-out: T1/2 in rat liver microsome
Description: as §1

[4] = In vitro metabolic stability, guinea pig liver microsome incubation; format: in vitro ADME; conditions: liver microsomes, 1 mg/mL protein, 37° C., read-out: T1/2 in guinea pig liver microsome
Description: as §1

T2 sequence (Q13464 whole entry): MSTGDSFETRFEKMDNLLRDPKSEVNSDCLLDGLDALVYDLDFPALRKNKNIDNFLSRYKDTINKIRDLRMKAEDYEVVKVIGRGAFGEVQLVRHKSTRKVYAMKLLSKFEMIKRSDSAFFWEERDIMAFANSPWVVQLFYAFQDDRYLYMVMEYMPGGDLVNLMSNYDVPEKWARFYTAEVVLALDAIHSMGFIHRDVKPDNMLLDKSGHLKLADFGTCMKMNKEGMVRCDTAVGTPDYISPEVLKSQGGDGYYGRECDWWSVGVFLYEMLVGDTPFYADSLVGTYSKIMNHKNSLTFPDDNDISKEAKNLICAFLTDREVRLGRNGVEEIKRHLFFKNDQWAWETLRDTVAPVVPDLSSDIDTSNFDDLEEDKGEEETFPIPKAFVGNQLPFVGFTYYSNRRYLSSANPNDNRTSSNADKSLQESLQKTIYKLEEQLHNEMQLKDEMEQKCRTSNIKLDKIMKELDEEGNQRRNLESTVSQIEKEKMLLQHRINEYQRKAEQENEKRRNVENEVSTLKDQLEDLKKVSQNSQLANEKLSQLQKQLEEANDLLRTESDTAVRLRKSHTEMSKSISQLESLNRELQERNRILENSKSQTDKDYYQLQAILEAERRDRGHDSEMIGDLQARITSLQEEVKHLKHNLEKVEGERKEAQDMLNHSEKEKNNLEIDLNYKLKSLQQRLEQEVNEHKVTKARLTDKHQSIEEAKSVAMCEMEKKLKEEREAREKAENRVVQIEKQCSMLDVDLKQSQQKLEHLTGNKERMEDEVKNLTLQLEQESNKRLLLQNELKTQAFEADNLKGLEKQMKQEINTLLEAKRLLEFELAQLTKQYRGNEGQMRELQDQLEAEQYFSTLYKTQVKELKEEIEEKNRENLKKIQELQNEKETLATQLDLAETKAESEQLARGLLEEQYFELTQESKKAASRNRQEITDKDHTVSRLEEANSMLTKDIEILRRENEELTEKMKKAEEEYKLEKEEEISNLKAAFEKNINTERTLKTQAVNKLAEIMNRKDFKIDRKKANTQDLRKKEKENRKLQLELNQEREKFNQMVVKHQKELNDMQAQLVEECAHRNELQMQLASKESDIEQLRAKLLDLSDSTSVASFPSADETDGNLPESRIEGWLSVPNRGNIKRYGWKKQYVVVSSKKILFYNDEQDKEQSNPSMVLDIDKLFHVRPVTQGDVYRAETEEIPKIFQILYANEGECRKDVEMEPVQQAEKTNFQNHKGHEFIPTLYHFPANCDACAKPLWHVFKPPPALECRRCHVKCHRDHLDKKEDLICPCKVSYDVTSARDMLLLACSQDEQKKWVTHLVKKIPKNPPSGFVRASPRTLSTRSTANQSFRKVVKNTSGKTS
T1 sequence (O75116 whole entry): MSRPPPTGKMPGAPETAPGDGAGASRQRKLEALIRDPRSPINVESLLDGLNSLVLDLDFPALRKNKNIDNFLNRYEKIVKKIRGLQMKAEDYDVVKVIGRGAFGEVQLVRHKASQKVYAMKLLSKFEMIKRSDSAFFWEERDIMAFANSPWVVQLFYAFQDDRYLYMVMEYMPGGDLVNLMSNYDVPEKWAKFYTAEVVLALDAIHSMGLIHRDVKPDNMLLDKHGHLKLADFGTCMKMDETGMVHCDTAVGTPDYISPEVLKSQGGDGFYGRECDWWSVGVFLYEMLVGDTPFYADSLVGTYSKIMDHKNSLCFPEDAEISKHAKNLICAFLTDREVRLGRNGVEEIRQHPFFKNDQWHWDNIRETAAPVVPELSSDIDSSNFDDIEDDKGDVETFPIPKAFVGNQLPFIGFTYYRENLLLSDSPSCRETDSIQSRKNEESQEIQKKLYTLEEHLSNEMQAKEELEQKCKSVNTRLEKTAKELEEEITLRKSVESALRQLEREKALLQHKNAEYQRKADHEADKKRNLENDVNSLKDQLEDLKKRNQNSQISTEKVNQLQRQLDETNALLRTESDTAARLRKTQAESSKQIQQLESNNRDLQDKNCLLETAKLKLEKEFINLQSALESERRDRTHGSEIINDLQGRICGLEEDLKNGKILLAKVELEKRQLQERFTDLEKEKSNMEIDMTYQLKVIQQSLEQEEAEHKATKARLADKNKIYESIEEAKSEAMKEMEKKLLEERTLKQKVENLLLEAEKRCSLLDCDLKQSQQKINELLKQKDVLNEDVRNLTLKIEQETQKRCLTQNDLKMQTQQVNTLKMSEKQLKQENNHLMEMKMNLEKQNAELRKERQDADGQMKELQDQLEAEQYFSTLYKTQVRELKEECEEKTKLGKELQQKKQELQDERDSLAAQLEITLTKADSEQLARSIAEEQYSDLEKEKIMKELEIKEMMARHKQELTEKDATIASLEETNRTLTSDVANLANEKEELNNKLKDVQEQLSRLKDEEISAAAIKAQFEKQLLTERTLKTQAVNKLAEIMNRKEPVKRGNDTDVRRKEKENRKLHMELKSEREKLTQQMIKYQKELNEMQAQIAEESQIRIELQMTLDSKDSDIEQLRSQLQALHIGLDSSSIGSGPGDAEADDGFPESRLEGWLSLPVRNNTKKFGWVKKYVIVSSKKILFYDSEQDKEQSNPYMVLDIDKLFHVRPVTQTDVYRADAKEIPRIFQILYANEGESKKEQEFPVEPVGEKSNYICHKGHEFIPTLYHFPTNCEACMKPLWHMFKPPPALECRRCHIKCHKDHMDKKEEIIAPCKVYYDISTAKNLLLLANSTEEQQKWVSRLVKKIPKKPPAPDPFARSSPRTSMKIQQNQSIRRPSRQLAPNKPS

Structure (SMILES) | IC50 (ROCK2 kinase) [nM] | IC50 (ROCK1 kinase) [µM] | half-life [2] [min] | half-life [3] [min] | half-life [4] [min] | CC50 at 48 h [1] [µM]
COc1cnc(N2CCc3cc(C(=O)N4CC(F)(F)C4)n(C)c3C2)nc1Nc1ccc(-c2cn[nH]c2)cc1 [Compound L026, (6-(4-((4-(1H-pyrazol-4-yl)phenyl)amino)-5-methoxypyrimidin-2-yl)-1-methyl-4,5,6,7-tetrahydro-1H-pyrrolo[2,3-c]pyridin-2-yl)(3,3-difluoroazetidin-1-yl)methanone] | ≤ 50 | > 4.5 | 237 | 61.2 | 28.4 | > 100
Cn1c(C(=O)N2CC(F)(F)C2)cc2c1CN(c1nc3c(c(Nc4ccc(-c5cn[nH]c5)cc4)n1)COCC3)CC2 [Compound L031] | ≤ 50 | > 4.5 |  |  |  | 33.4
Cn1c(C(=O)OCC(F)(F)F)cc2c1CN(c1nccc(Nc3ccc(-c4cn[nH]c4)cc3)n1)CC2 [Compound L032, 2,2,2-trifluoroethyl 6-(4-((4-(1H-pyrazol-4-yl)phenyl)amino)pyrimidin-2-yl)-1-methyl-4,5,6,7-tetrahydro-1H-pyrrolo[2,3-c]pyridine-2-carboxylate] | 50 to 500 | > 4.5 | 81 | 42.5 | 33.8 | 28.4
Cn1c(C(=O)N2CC(C(F)(F)F)C2)cc2c1CN(c1nccc(Nc3ccc(-c4cn[nH]c4)cc3)n1)CC2 [Compound L033] | ≤ 50 | > 4.5 | 93.2 | 68.3 | 50.2 | > 100
Cn1c(C(=O)N2CC(F)(F)C2)cc2c1CN(c1nncc(Nc3ccc(-c4cn[nH]c4)cc3)n1)CC2 [Compound L037, (6-(5-((4-(1H-pyrazol-4-yl)phenyl)amino)-1,2,4-triazin-3-yl)-1-methyl-4,5,6,7-tetrahydro-1H-pyrrolo(2,3-c)pyridin-2-yl)(3,3-difluoroazetidin-1-yl)methanone] | ≤ 50 | > 4.5 | 157 | 33.2 | 60 | > 100
Cn1c(C(=O)N2CC(F)(F)C2)cc2c1CN(c1nc(C#N)cc(Nc3ccc(-c4cn[nH]c4)cc3)n1)CC2 [Compound L042] | 50 to 500 | > 4.5 | 438 | 345 | 349 | 27.9
COc1nnc(N2CCc3cc(C(=O)N4CC(F)(F)C4)n(C)c3C2)nc1Nc1ccc(-c2cn[nH]c2)cc1 [Compound L043, (6-(5-((4-(1H-pyrazol-4-yl)phenyl)amino)-6-methoxy-1,2,4-triazin-3-yl)-1-methyl-4,5,6,7-tetrahydro-1H-pyrrolo[2,3-c]pyridin-2-yl)(3,3-difluoroazetidin-1-yl)methanone] | 50 to 500 |  | 112 | 80.4 | 85.2 | > 100
O=C(c1cc2c(n1C(F)F)CN(c1ncnc(Nc3ccc(-c4cn[nH]c4)cc3)n1)CC2)N1CC(F)(F)C1 [Compound L045, (6-(4-((4-(1H-pyrazol-4-yl)phenyl)amino)-1,3,5-triazin-2-yl)-1-(difluoromethyl)-4,5,6,7-tetrahydro-1H-pyrrolo[2,3-c]pyridin-2-yl)(3,3-difluoroazetidin-1-yl)methanone] | > 4500 | > 4.5 |  |  |  | > 100

Continued, in another order:

IC50 (ROCK2 kinase) [nM] | IC50 (ROCK1 kinase) [µM] | half-life [2] [min] | half-life [3] [min] | half-life [4] [min] | Structure (SMILES) | CC50 at 48 h [1] [µM]
> 4500 | > 4.5 |  |  |  | O=C(c1cc2c(n1C(F)F)CN(c1ncc(F)c(Nc3ccc(-c4cn[nH]c4)cc3)n1)CC2)N1CC(F)(F)C1 [Compound L047, (6-(4-((4-(1H-pyrazol-4-yl)phenyl)amino)-5-fluoropyrimidin-2-yl)-1-(difluoromethyl)-4,5,6,7-tetrahydro-1H-pyrrolo[2,3-c]pyridin-2-yl)(3,3-difluoroazetidin-1-yl)methanone] | > 100
500 to 4500 | > 4.5 |  |  |  | CCc1nc(Nc2ccc(-c3cn[nH]c3)cc2)nc(N2CCc3cc(C(=O)N4CC(F)(F)C4)n(C)c3C2)n1 [Compound L048, (6-(4-((4-(1H-pyrazol-4-yl)phenyl)amino)-6-ethyl-1,3,5-triazin-2-yl)-1-methyl-4,5,6,7-tetrahydro-1H-pyrrolo[2,3-c]pyridin-2-yl)(3,3-difluoroazetidin-1-yl)methanone] | 100
50 to 500 | > 4.5 | 259 | 61.7 | 64.2 | Cc1nc(Nc2ccc(-c3cn[nH]c3)cc2)nc(N2CCc3cc(C(=O)N4CC(C#N)C4)n(C)c3C2)n1 [Compound L050, 1-(6-(4-((4-(1H-pyrazol-4-yl)phenyl)amino)-6-methyl-1,3,5-triazin-2-yl)-1-methyl-4,5,6,7-tetrahydro-1H-pyrrolo[2,3-c]pyridin-2-carbonyl)azetidine-3-carbonitrile] | > 100
50 to 500 | > 4.5 | 289 | 65 | 50.4 | Cn1c(C(=O)N2CC(F)(F)C2)cc2c1CN(c1nc(CC#N)nc(Nc3ccc(-c4cn[nH]c4)cc3)n1)CC2 [Compound L051, 2-(4-((4-(1H-pyrazol-4-yl)phenyl)amino)-6-(2-(3,3-difluoroazetidin-1-carbonyl)-1-methyl-1,4,5,7-tetrahydro-6H-pyrrolo[2,3-c]pyridin-6-yl)-1,3,5-triazin-2-yl)acetonitrile] | > 100
≤ 50 | > 4.5 | 60.4 | 52.8 | 42.1 | Cn1c(C(=O)N2CC(C#N)C2)cc2c1CN(c1ncc(F)c(Nc3ccc(-c4cn[nH]c4)cc3)n1)CC2 [Compound L056, 1-(6-(4-((4-(1H-pyrazol-4-yl)phenyl)amino)-5-fluoropyrimidin-2-yl)-1-methyl-4,5,6,7-tetrahydro-1H-pyrrolo[2,3-c]pyridin-2-carbonyl)azetidine-3-carbonitrile] | > 100
 |  | 91.3 | 17.2 | 96.4 | CC(C)NC(=O)COc1cccc(-c2nc(Nc3ccc4[nH]ncc4c3)c3ccccc3n2)c1 [KD-025, reference compound] | 
